Columns and labels:
Format in all cases: in vivo
[1] = system: Tomatoes; assay: Tomatoes trial under glass, foliar treatment; details: equivalent of 5 lt/ha
Experimental: (§1) Lettuce, beans, wheat and tomatoes were selected as plants to test the efficacy of the invention. Short term crops were grown in the greenhouse to ensure controlled condition and long term crops were grown outdoors in replicated trials. All relevant parameters to evaluate efficacy were tested including chlorophyll content, sugar levels, Mg and Fe tissue content, yield and quality characteristics. All trials were performed to good experimental practice (GEP) standards with adequate replication to conform to statistical comparisons. Environmental condition were monitored and kept the same between treatments for evaluation. John Innes soil based compost with low nutrient contents was used for the experiments and sieved to ensure uniformity. The applications were made to be applied at the equivalent of 5 lt/ha of end product in 180 lt of water. Treatments were administered foliarly just before runoff point. The magnesium and iron were in the form of Sulphate.
The trial on tomatoes under glass had shown a significant increase in yield and quality characteristics with the application of the present invention. […] The internode length reduced on average by 20% which is desirable for tomato plants grown under glass due to the infrastructure restrictions and efforts towards vegetative growth.

[2] = system: Lettuce; assay: Lettuce greenhouse trial, foliar treatment
Experimental: as §1

[3] = system: Beans; assay: Beans greenhouse trial, foliar treatment; details: equivalent of 5 lt/ha
Experimental: as §1, with “Sulphate. […] Larger plants expressed as weight per plant was observed together with an increase in chlorophyll content, Mg and Fe content in the plant tissue and leaf diameter (which promotes resource capture). A reduction in internode length was also observed which is favourable for many greenhouse and outdoor vegetable crops.” for “Sulphate.”

[4] = lettuce, foliar, equivalent of 5 lt/ha

## O=C(Nc1ccccc1)Nc1ccccc1 [DPU, 1,3-diphenylurea]
[1]; average fruit fresh weight
  Yield: 132 g
[1]
  Chlorophyll (mg/cm^2): 0.031 mg/cm^2
  Firmness (turgor MPa): 0.08 MPa
  Internode length: 8.1
  Sugar level (%): 6.8%
[2]; lettuce fresh weight (yield st. error ±8), foliar, equivalent of 5 lt/ha of end product in 180 lt of water
  Yield: 213 g
[2]; lettuce tissue, dry weight, foliar, equivalent of 5 lt/ha
  Fe content (mg/kg dw): 254 mg/kg dw
[2]; lettuce tissue, fresh weight, foliar, equivalent of 5 lt/ha
  Mg content (mg/kg fw): 480 mg/kg fw
[2]; [4]
  Chlorophyll (mg/cm^2): 0.029 mg/cm^2
  Leaf number: 28
  Sugar level (%): 5.5%
[2]; lettuce, weight loss after 7 days in ambient temperature (indication of shelf life)
  Weight loss (%): 22%
[3]; beans plant tissue
  Fe content: 86 mg/kg
  Mg content (%): 0.42%
[3]; beans
  Chlorophyll (mg/cm^2): 0.025 mg/cm^2
  Internode length: 7
  Leaf diameter (cm): 7.8 cm
[3]; beans, fresh weight of above ground plant at 6 wks (st. error ±10)
  Yield: 364 g

— patent publication US9949486B2, “Agrochemical composition comprising a N,N#-disubstituted (thio)urea for the improvement of crop productivity” (Crop Intellect Ltd., priority 2014, dated 2018)
